Experimental findings from the NIST ThermoML archive (doi:10.1016/j.tca.2014.09.007) are described below.

Data set [1] is described as follows: Molar enthalpy of transition or fusion. The conditions noted are these: Crystal; DSC.
For data set [2] the following is noted: DTA.

Numbers after ± are expanded uncertainties.

With `CC(C)(Sc1cc(C(C)(C)C)c(O)c(C(C)(C)C)c1)Sc1cc(C(C)(C)C)c(O)c(C(C)(C)C)c1` [probucol], the “Molar enthalpy of transition or fusion” value in data set [1] turned out to be 7.65 ± 0.222 kcal/mol. The Normal melting temperature in data set [2] (Crystal) was 125.90 ± 0.5 °C. Also, the Glass transition temperature in data set [2] (Glass) is 25.00 ± 4 °C.
